{
  "source": "patent US20080119439A1",
  "about": "“Treatment and prevention of intestinal fibrosis” (Bayer Schering Pharma Aktiengesellschaft, priority 2006, published 2008)",
  "key": {"[1]": {"test_system": "chronic model of colon inflammation (established TNBS colitis)", "assay": "Study 2: established TNBS colitis, lipoxin A4 analog dosed orally after the third week of TNBS", "type": "in vivo, BALB/c mice", "conditions": "1 mg/kg orally, starting on week 3 after TNBS administration", "procedure": "(§1) A model of chronic inflammation induced by 7 week administration of 2,4,6-trinitrobenzenesulfonic acid (TNBS) in escalating manner was used in these studies. This model results in inflammation-driven fibrosis that associates with significant increase in intestinal content of collagen.\n(§2) The induction of chronic colitis was performed according the protocol proposed by Lawrance et al, Gastroenterology (2003) 125:1750-1761. Six- to eight-week-old female mice of the BALB/c strain were obtained from Charles River (Breeding Laboratories, Monza, Italy).\nTo test the influence of lipoxin analogs in the inflammatory and fibrotic response in animals with established colitis, in a second in vivo study lipoxin A4 analog (1 mg/kg) was dosed orally starting after the third week of administration of TNBS (same protocol as described above). Mice were examined weekly for weight loss, diarrhea and rectal bleeding. Two days after the last administration of TNBS, mice were killed and colons were removed and examined. The macroscopic appearance was analyzed considering the presence of indurations, edema, thickness and evidence of mucosal hemorrhage.\nNeutrophil infiltration in the colon was monitored by measuring MPO activity using a spectrophotometric assay with trimethylbenzidine (TMB) as a substrate according to a previously published method. Activity is expressed as U per mg protein. […]"}, "[2]": {"test_system": "chronic model of colon inflammation (TNBS-induced chronic colitis)", "assay": "Study 1: chronic TNBS colitis, lipoxin A4 analog given daily together with TNBS", "type": "in vivo, BALB/c mice", "procedure": "as §1, §2\nIn a first in vivo experiment, BALB/c mice of the control group (n=7) received weekly 0.1 mL of saline solution by intracolonic injections. Mice of the TNBS group (n=15) were treated for 8 weeks with escalating doses (0.5 to 1.25 mg, with a 0.25 mg increase every two weeks) of TNBS in 30% ethanol by intracolonic injections at weekly intervals. Mice of TNBS+lipoxin A4 analog group (n=15) received the same weekly TNBS administration as the TNBS-only group plus 1 mg/kg of the lipoxin A4 analog daily by intragastric administration. Mice were examined weekly for weight loss, diarrhea and rectal bleeding. Two days after the last administration of TNBS, mice were killed and colons were removed and examined. The macroscopic appearance was analyzed considering the presence of indurations, edema, thickness and evidence of mucosal hemorrhage.\nNeutrophil infiltration in the colon was monitored by measuring MPO activity using a spectrophotometric assay with trimethylbenzidine (TMB) as a substrate according to a previously published method. Activity is expressed as U per mg protein.\nFor histologic examination, sections of the proximal, middle and distal colon from each animal were fixed in 10% formalin, embedded in paraffin, sectioned, and stained with haematoxylin and eosin (H&E) or Sirius Red. For the latter, sections were incubated for 30 minutes in 0.1% Sirius Red F3B containing saturated picric acid and 0.1% fast green. After rising twice with distilled water, sections were briefly dehydrated with 70% ethanol.\nImages from colon sections were acquired with a BX60 microscope (Olympus Co., Rome, Italy), digitalized using a SPOT-2 camera (Diagnostic Instruments Inc., Sterling Heights, Mich.) with a resolution of 1315×1033 pixels and analyzed using a computerized image analysis system (Image Acquisition System Ver.005, Delta Sistemi, Rome, Italy).\nSections from the colon of each animal were examined in a blinded fashion. The degree of the inflammation and fibrosis was scored accordingly with an established method (Lawrance et al., supra; Neurath et al., J. Exp. Med. (1995) 182:1281-1290). Briefly, inflammation was scored as absent, mild, moderate or severe depending on the density and extent of inflammatory infiltrates, loss of goblet cells, and bowel wall thickening. Also, the fibrosis was scored as absent, mild, moderate or severe on the basis of the density and extent of the Sirius red-positive connective tissue staining, compared with the water-control mice.\nQuantification of the expression of mouse gene in colon tissues and intestinal fibroblasts was performed by quantitative real-time polymerase chain reaction (RT-PCR) (Heid C A 1996), using sense and antisense primers indicated in Table 1. All PCR primers were designed using PRIMER3-OUTPUT software using published sequence data from the NCBI database. Total RNA was isolated (TRIzol reagent, Invitrogen srl, Milan, Italy) from specimens taken from distal colons and intestinal fibroblasts. One microgram of purified RNA was treated with Dnasel for 15 minutes at room temperature, followed by incubation at 95° C. for 5 minutes in the presence of 2.5 mmol/L EDTA. The RNA was reverse-transcribed with Superscript III (Invitrogen srl, Milan, Italy) in 20 μL reaction volume using random primers. […]"}, "[3]": {"conditions": "1 mg/kg daily intragastric, seven weeks, quantitative RT-PCR"}},
  "data": [
    {"smiles": "O=C([O-])COC[C@H](O)[C@H](O)/C=C/C=C/C#C/C=C/[C@H](O)COc1ccc(F)cc1.[Na+]", "note": "[lipoxin A4 analog, sodium 2-((2S,3R,4E,6E,10E,12S)-13-(4-fluorophenoxy)-2,3,12-trihydroxytrideca-4,6,10-trien-8-ynyloxy)acetate]", "values": [
      {"measurement": "efficacy when administered in a therapeutic manner (inflammatory and fibrotic response)", "setting": "[1]", "result": "effective"},
      {"measurement": "colon fibrosis development, morphometric analysis of Sirius red-stained colon", "setting": "[2]; 1 mg/kg daily intragastric, administered for seven weeks, vs TNBS alone", "result": "significantly attenuated"},
      {"measurement": "colon expression of TGFβ mRNA (marker of colon fibrosis)", "setting": "[2]; [3]", "result": "significantly attenuated"},
      {"measurement": "colon expression of fibronectin mRNA (marker of colon fibrosis)", "setting": "[2]; [3]", "result": "significantly attenuated"},
      {"measurement": "colon expression of α-SMA mRNA (marker of colon fibrosis)", "setting": "[2]; [3]", "result": "significantly attenuated"},
      {"measurement": "colon expression of αI collagen mRNA (marker of colon fibrosis)", "setting": "[2]; [3]", "result": "significantly attenuated"},
      {"measurement": "colon inflammation", "setting": "[2]; administered orally", "result": "attenuated"},
      {"measurement": "TGBβ protein in colon", "setting": "[2]; in comparison to mice administered TNBS alone", "result": "reduced"}
    ]}
  ]
}
